Results published in US20240408085A1, “COMPOUND FOR DEGRADATION OF BCL-2 FAMILY PROTEINS AND MEDICAL APPLICATION THEREOF” (XIZANG HAISCO PHARMACEUTICAL CO., LTD., priority 2021, published 2024).

How the values were obtained:
[1] = system: MOLT-4 xenograft tumors; test: Growth inhibition experiment in MOLT-4 xenograft tumor models in mice; type: in vivo; settings: two-way ANOVA and then Dunnett's test, FIG. 1
Experimental: MOLT-4 cells are acute lymphoblastic leukemia cell lines in humans. The cells were purchased from ATCC and cultured in RPMI-1640+10% FBS+1% o penicillin-streptomycin solution in a 37° C., 5% CO2 incubator. When the cells were in the exponential growth phase, the cells were harvested and counted. An equal volume of matrigel was added. Female SCID Beige mice (4-6 weeks old, 14-16 g, Beijing Vital River Laboratory Animal Technology Co., Ltd.) were inoculated subcutaneously in the right flank with the cells (200 μL, containing 1×10^7 MOLT-4 cells and 50% matrigel). When the tumor volume reached 150-200 mm^3, the mice were randomly grouped for administration according to the tumor volume and body weight of the mice. Three administration dosages were provided: 5 mpk, 15 mpk and 50 mpk. The compounds were injected intraperitoneally (ip) weekly (qw). The mice in all the experimental groups (10 mice in each group) were continuously administered for 4 weeks.
After inoculation, the body weights of the mice were measured three times a week and the long (a) and short (b) diameters of the tumors were measured. The tumor volume was calculated according to the formula: V=ab^2/2. At day 28 after the administration, the experiment was terminated.

[2] = target: T1, BCL-xL proteins (Homo sapiens, UniProt Q07817); test: BCL-xL degradation activity in MOLT-4 cells (western blot, 16 h); type: cell-based
T1 construct: degradation effect on the BCL-xL proteins in MOLT-4 cells; host or cells: MOLT-4
T1 sequence (Q07817 whole entry): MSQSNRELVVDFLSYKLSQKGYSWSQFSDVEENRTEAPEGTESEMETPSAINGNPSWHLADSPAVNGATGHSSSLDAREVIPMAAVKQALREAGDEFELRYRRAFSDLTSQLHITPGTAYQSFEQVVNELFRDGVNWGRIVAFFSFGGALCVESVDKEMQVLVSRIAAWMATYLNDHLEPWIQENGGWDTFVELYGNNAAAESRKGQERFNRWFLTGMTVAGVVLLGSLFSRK
Experimental: MOLT-4 cells are acute lymphoblastic leukemia cell lines in humans. The cells were purchased from ATCC. Culture conditions: RPMI-1640+10% FBS+1% penicillin-streptomycin solution. The cells were cultured in a 37° C., 5% CO2 incubator. The cells were plated in a 12-well plate, with 2×10^5 cells/well. After plating, compounds at different concentrations were added and cultured in a 37° C., 5% CO2 incubator for 16 h. After the completion of culture, the cells were harvested and RIPA lysis buffer (beyotime, Cat. P0013B) was added. The cells were lysed on ice for 15 minutes and centrifuged at 12000 rpm at 4° C. for 10 minutes. The supernatant protein samples were collected and the protein was quantified by using the BCA kit (Beyotime, Cat. P0009). Then the protein was diluted to 0.8 mg/mL. The expressions of BCL-xL (CST, Cat. 2764S), BCL-2 (CST, Cat. 15071S) and the internal reference β-actin (CST, Cat. 3700S) were detected using a fully automated western blot quantitative analyzer (Proteinsimple). The expression level of BCL-xL or BCL-2 relative to the internal reference was calculated by using Compass software, and the DC50 value was calculated by using GraphPad Prism 8.0 software according to formula (1), wherein the Proteinadministration denoted the relative expression level of BCL-xL or BCL-2 in administration groups at different doses, and the Proteinvehicle denoted the relative expression level of BCL-xL or BCL-2 in the vehicle control group.
Protein %=Proteinadministration/Proteinvehicle×100% formula (1)

[3] = system: platelet (PLT); test: Effect on platelet (PLT) after single intravenous injection; type: in vivo, SD rats; set-up: key to Effect on PLT (↓ decrease): — represents that no significant change was observed; settings: for platelet toxicity relative to the control compound: rats
Experimental: Experimental animal: 78 SD rats, with an equal number of males and females, male (♂): 290-380 g, female (♀): 220-290 g, 8-10 weeks old, purchased from Zhejiang Vital River Laboratory Animal Technology Co., Ltd.
Experimental protocol: a clear solution was formulated using a vehicle ([…]). The animals were dosed via tail vein a single time (administration volume: 20 mL/kg; bolus injection period: about 4 minutes; recovery period: 7 days).

[4] = Pharmacokinetic test in monkeys (intravenous); type: in vivo; settings: male, cynomolgus monkey, i.v. 2 mg/kg, plasma
Experimental: Experimental animals: male cynomolgus monkeys, 3-5 kg, 3-6 years old, 2 monkeys/compound. Purchased from Suzhou Xishan Biotechnology Inc.
Experimental method: on the day of the test, 2 monkeys were randomly grouped according to their body weights. The animals were fasted with water available for 14 to 18 h one day before the administration of a test compound, and were fed 4 hours after the administration.
Before and after the administration, 1.0 mL of blood samples were drawn from the limb veins and placed in an EDTAK2 centrifuge tube. Centrifugation was carried out at 5000 rpm at 4° C. for 10 min, and the plasma was collected. Blood collection time points for the intravenous group were: 0, 5 min, 15 min, 30 min, 1 h, 2 h, 4 h, 6 h, 8 h, 10 h, 12 h, 24 h, and 48 h. Before analysis and detection, all samples were stored at −80° C., and a quantitative analysis of samples was performed using LC-MS/MS.

For `Cc1ncsc1-c1ccc([C@H](C)NC(=O)[C@@H]2C[C@@H](O)CN2C(=O)[C@@H](NC(=O)CCCCCC(=O)N2CCN(CC[C@H](CSc3ccccc3)Nc3ccc(S(=O)(=O)NC(=O)c4ccc(N5CCN(CC6=C(c7ccc(Cl)cc7)CCCCC6)CC5)cc4)cc3S(=O)(=O)C(F)(F)F)CC2)C(C)(C)C)cc1` [Compound 6, (2S,4R)-1-((S)-2-(7-(4-((R)-3-((4-(N-(4-(4-((2-(4-chlorophenyl)cyclohept-1-en-1-yl)methyl)piperazin-1-yl)benzoyl)sulfamoyl)-2-((trifluoromethyl)sulfonyl)phenyl)amino)-4-(phenylthio)butyl)piperazin-1-yl)-7-oxoheptanamido)-3,3-dimethylbutanoyl)-4-hydroxy-N—((S)-1-(4-(4-methylthiazol-5-yl)phenyl)ethyl)pyrrolidine-2-carboxamide], the “growth inhibition on MOLT-4 xenograft tumor models, P versus the vehicle control group” value [1] was less than 0.0001, the DC50 [2] was 8.4 nM and the “Effect on PLT (↓ decrease)” value ([3]; SD rats ♀, 6 mg/kg single i.v., 4 h) was “—”. For the same compound, the “Effect on PLT (↓ decrease)” value ([3]; SD rats ♀, 6 mg/kg single i.v., D2) was “↓60%”, the “Effect on PLT (↓ decrease)” value ([3]; SD rats ♀, 20 mg/kg single i.v., 4 h) was “↓61%” and the “Effect on PLT (↓ decrease)” value ([3]; SD rats ♀, 20 mg/kg single i.v., D2) was “↓84%”. For the same compound, the “Effect on PLT (↓ decrease)” value ([3]; SD rats ♀, 60 mg/kg single i.v., D8) was “↓53%”, the “Effect on PLT (↓ decrease)” value ([3]; SD rats ♂, 6 mg/kg single i.v., 4 h) was “↓16%” and the “Effect on PLT (↓ decrease)” value ([3]; SD rats ♂, 6 mg/kg single i.v., D2) was “↓56%”. For the same compound, the “Effect on PLT (↓ decrease)” value ([3]; SD rats ♂, 20 mg/kg single i.v., 4 h) was “↓51%”, the “Effect on PLT (↓ decrease)” value ([3]; SD rats ♂, 20 mg/kg single i.v., D2) was “↓71%” and the “Effect on PLT (↓ decrease)” value ([3]; SD rats ♂, 60 mg/kg single i.v., D8) was “↓17%”. For the same compound, the “platelet toxicity relative to the control compound” value ([3]; 6 mg/kg and 20 mg/kg single i.v., 4 h and D2) was “less platelet toxicity”, the “platelet toxicity relative to the control compound” value ([3]; 60 mg/kg single i.v., D8) was “less platelet toxicity” and the AUC(0-t) [4] was 54600 ± 5910 ng·h/mL. It also gave a half-life [4] of 590 ± 132 min.
